Laboratory results as given in patent US20240050385A1, “METHODS OF TREATING LEPTOMENINGEAL METASTASIS” (MEMORIAL SLOAN-KETTERING CANCER CENTER, priority 2020, published 2024).
Structures can show the parent of a compound that is named as a salt.

Experiments:
PC9-LeptoM cells = test: In vivo leptomeningeal metastasis assay, PC9-LeptoM model, intracisternal chelator treatment; parameters: species or system mouse
[1] = IT-DFO dose escalation toxicity in healthy C57BL6/J mice; assay type: in vivo, mouse
Protocol: An IT-DFO dose escalation experiment was completed to determine the lethal dose to 10% of rodents (LD10) and any dose-dependent toxicities to the systemic circulation and organ function in a mouse model. In this study, healthy C57BL6/J mice were injected intracistemally with either PBS (control) or with a fixed dose of DFO (0.05 μM, 1 μM, 10 μM, 50 μM and 100 μM) in replicate at a schedule of twice weekly for a total of 6 weeks (42 days). Mice were monitored for weekly weights and survival trends. Remaining mice were sacrificed on day 46 and circulating blood collected via cardiac puncture. Blood was sent for complete blood count (CBC) with automated differential and complete metabolic panels (CMP).

SMILES: CC(=O)N(O)CCCCCNC(=O)CCC(=O)N(O)CCCCCNC(=O)CCC(=O)N(O)CCCCCN [DFO, Deferoxamine mesylate]
- [Fe] (PC9-LeptoM cells; total iron in CSF, early (day 0)): 5.63 ± 0.70 µM
- Median Survival (PC9-LeptoM cells; treatment begun early (day 0), every 3 days): 52 ± 7 days
- lethality with cumulative twice weekly dosing (LD for % rodents) ([1]; 10 μM group, one mouse died at day 24, total N=12): 8.3%
- lethality with cumulative twice weekly dosing (LD for % rodents) ([1]; 50 μM group, one mouse died at day 46, total N=8): 12.5%
- lethality following a single dose ([1]; any tested concentration (0.05, 1, 10, 50, 100 μM)): no mice died
- tolerability of intracisternal administration ([1]; mouse, in vivo): well tolerated
